Where two headings read alike, the source gives them in different places.
Legend:
[1] = system: Aβ40 in conditioned medium of cells stably expressing Amyloid Precursor Protein (APP); assay: In vitro BACE cell-based assay (HEK cell assay), Aβ40 sandwich ELISA
Outline: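 Aβ40 in conditioned medium was quantified by time-resolved fluorescence sandwich ELISA (pAb40 capture 3 h at 4 °C, biotin-6E10 detection 2 h at 4 °C) after 24 h compound exposure of APP-expressing cells. Doses spanned 10 points from 100 μM or 10 μM top, 0.1% DMSO; IC50 was derived from percent of control.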

[2] = molecular target: Beta Secretase enzyme (BACE1) (Homo sapiens, UniProt P56817); assay: In vitro enzymatic BACE FRET assay; type: biochemical; details: read-out: BACE1 FRET assay IC50
Chain of Beta Secretase enzyme (BACE1) (P56817 46-501): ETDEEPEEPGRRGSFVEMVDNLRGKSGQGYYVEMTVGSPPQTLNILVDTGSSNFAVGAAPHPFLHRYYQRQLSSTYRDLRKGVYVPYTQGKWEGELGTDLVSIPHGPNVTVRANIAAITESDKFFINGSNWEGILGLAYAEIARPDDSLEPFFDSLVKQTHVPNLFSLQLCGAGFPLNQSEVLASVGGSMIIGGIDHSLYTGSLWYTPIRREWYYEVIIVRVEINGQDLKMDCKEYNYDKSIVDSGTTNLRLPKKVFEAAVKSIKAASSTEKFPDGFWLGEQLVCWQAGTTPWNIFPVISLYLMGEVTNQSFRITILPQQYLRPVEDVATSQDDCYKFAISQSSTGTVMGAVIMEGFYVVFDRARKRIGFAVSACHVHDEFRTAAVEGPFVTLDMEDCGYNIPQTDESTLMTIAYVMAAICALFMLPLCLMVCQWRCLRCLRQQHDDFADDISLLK
Outline: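 Readout: dequenched fluorescence (ex 488 nm/[…]) after neutralizing with Tris buffer. Reactions, begun by adding 50 nM quenched peptide substrate spanning the BACE cleavage site, were incubated one hour at pH 4.2 in 0.05 M acetate with 100 uM genapol and 10% final DMSO.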

Cathepsin D (Cat D) = molecular target: T1, Cathepsin D (Cat D) (Homo sapiens, UniProt P07339); assay: In vitro enzymatic Cathepsin D (Cat D) FRET assay; type: biochemical; details: read-out: CatD IC50
T1 construct: Recombinant Cat D was expressed in CHO cells; made in house; host or cells: CHO cells
T1 sequence (P07339 65-412, species assumed): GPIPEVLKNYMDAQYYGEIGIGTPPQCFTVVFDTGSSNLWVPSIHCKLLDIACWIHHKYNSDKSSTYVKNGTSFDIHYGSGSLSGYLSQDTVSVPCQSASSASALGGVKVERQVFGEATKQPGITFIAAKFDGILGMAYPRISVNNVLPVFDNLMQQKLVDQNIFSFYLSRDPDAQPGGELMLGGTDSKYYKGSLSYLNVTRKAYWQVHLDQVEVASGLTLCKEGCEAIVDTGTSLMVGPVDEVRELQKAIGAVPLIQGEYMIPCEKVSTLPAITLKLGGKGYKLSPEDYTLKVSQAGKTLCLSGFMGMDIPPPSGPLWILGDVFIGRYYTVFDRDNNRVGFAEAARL
Outline: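 FRET read-out: a fluorophore/quencher-labelled peptide substrate is cleaved by 9 nM Cat D (recombinant, CHO-expressed) following a one-hour preincubation with inhibitor dilutions in DMSO. Tris buffer added to neutralize pH ends the reaction before fluorescence measurement.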

[3] = Homo sapiens, HEK293, average IC50, cell assay
[4] = Homo sapiens, HEK293, average IC50, HEK cells

Row | Compound | IC50 [1, 3] [µM] | IC50 ([2]; average IC50, enzyme assay) [µM] | IC50 (Cathepsin D (Cat D)) [µM] | IC50 [1, 4] [µM] | IC50 ([2]; average IC50) [µM] | IC50 [1] [µM] | IC50 [2] [µM] | IC50 ([1]; average IC50, cell assay) [µM]
1 | CC1(C)C(N)=N[C@](C)(c2cc(Nc3nccc4nc(OCC#N)cnc34)ccc2F)CS1(=O)=O [Example 443, ((5-((3-((3R)-5-amino-3,6,6-trimethyl-1,1-dioxido-3,6-dihydro-2H-1,4-thiazin-3-yl)-4-fluorophenyl)amino)pyrido[3,4-b]pyrazin-2-yl)oxy)acetonitrile] | 0.004 | 0.00287 | 346 | – | – | – | – | –
2 | CC1(C)C(N)=N[C@](C)(c2cc(Nc3nccc4nc(OCC(F)F)cnc34)ccc2F)CS1(=O)=O [Example 444, N-(3-((3R)-5-amino-3,6,6-trimethyl-1,1-dioxido-3,6-dihydro-2H-1,4-thiazin-3-yl)-4-fluorophenyl)-2-(2,2-difluoroethoxy)pyrido[3,4-b]pyrazin-5-amine] | 0.0083 | 0.00454 | 242 | – | – | – | – | –
3 | CC#CCOc1cnc2c(Nc3ccc(F)c([C@]4(C)CS(=O)(=O)C(C)(C)C(N)=N4)c3)nccc2n1 [Example 445, N-(3-((3R)-5-amino-3,6,6-trimethyl-1,1-dioxido-3,6-dihydro-2H-1,4-thiazin-3-yl)-4-fluorophenyl)-2-(2-butyn-1-yloxy)pyrido[3,4-b]pyrazin-5-amine] | 0.0002 | 0.00032 | 178 | – | – | – | – | –
4 | CC1(C)C(N)=N[C@](C)(c2cc(Nc3cc(Cl)cc4cc(Cl)cnc34)ccc2F)CS1(=O)=O [Example 446, N-(3-((3R)-5-amino-3,6,6-trimethyl-1,1-dioxido-3,6-dihydro-2H-1,4-thiazin-3-yl)-4-fluorophenyl)-3,6-dichloro-8-quinolinamine] | 0.263 | 0.0022 | 13.9 | – | – | – | – | –
5 | COc1cnc2c(Nc3ccc(F)c([C@]4(CF)CS(=O)(=O)C(C)(C)C(N)=N4)c3)nccc2n1 [Example 447, N-(3-((3S)-5-amino-3-(fluoromethyl)-6,6-dimethyl-1,1-dioxido-3,6-dihydro-2H-1,4-thiazin-3-yl)-4-fluorophenyl)-2-methoxypyrido[3,4-b]pyrazin-5-amine] | 0.0141 | 0.00088 | 1120 | – | – | – | – | –
6 | CC1(C)C(N)=N[C@](CF)(c2cc(Nc3nccc4cc(Cl)cnc34)ccc2F)CS1(=O)=O [Example 448, N-(3-((3S)-5-amino-3-(fluoromethyl)-6,6-dimethyl-1,1-dioxido-3,6-dihydro-2H-1,4-thiazin-3-yl)-4-fluorophenyl)-3-chloro-1,7-naphthyridin-8-amine] | 0.0285 | 0.00037 | 58.4 | – | – | – | – | –
7 | CC1(C)C(N)=N[C@](CF)(c2cc(Nc3nncc4cc(Br)ccc34)ccc2F)CS1(=O)=O [Example 449, N-(3-((3S)-5-amino-3-(fluoromethyl)-6,6-dimethyl-1,1-dioxido-3,6-dihydro-2H-1,4-thiazin-3-yl)-4-fluorophenyl)-6-bromo-1-phthalazinamine] | 0.159 | 0.0302 | 375 | – | – | – | – | –
8 | CC1(C)C(N)=N[C@](C)(c2cc(Nc3nncc4cc(Br)cnc34)ccc2F)CS1(=O)=O [Example 451, N-(3-((3R)-5-amino-3,6,6-trimethyl-1,1-dioxido-3,6-dihydro-2H-1,4-thiazin-3-yl)-4-fluorophenyl)-3-bromopyrido[2,3-d]pyridazin-8-amine] | 0.0006 | 0.00068 | 104 | – | – | – | – | –
9 | CC1(C)C(N)=N[C@](C)(c2cc(NC(=O)c3ccc(Cl)cn3)c[nH]c2=O)CS1(=O)=O [Example 452, N-(5-((3R)-5-amino-3,6,6-trimethyl-1,1-dioxido-3,6-dihydro-2H-1,4-thiazin-3-yl)-6-oxo-1,6-dihydro-3-pyridinyl)-5-chloro-2-pyridinecarboxamide] | 0.0159 | 0.00704 | 1870 | – | – | – | – | –
10 | Cc1cc(OC(F)F)cnc1C(=O)Nc1cnc(F)c([C@]2(C)CS(=O)(=O)C3(CC3)C(N)=N2)c1 [Example 454, N-(5-((6R)-8-amino-6-methyl-4,4-dioxido-4-thia-7-azaspiro[2.5]oct-7-en-6-yl)-6-fluoro-3-pyridinyl)-5-(difluoromethoxy)-3-methyl-2-pyridinecarboxamide] | – | – | 106 | 0.0039 | 0.0031 | – | – | –
11 | C[C@@]1(c2cc(Br)cnc2F)CS(=O)(=O)C2(CC2)C(N)=N1 [Example 455, (6R)-6-(5-bromo-2-fluoro-3-pyridinyl)-6-methyl-4-thia-7-azaspiro[2.5]oct-7-en-8-amine 4,4-dioxide] | – | – | 100 | > 15.6 | 12.5 | – | – | –
12 | CC1(C)C(N)=N[C@](CF)(c2cc(N)ccc2F)CS1(=O)=O [Example 456, (5S)-5-(5-amino-2-fluorophenyl)-5-(fluoromethyl)-2,2-dimethyl-5,6-dihydro-2H-1,4-thiazin-3-amine 1,1-dioxide] | – | – | 228 | > 15.6 | 2.53 | – | – | –
13 | COc1ccc(C(=O)Nc2ccc(F)c([C@]3(CF)CS(=O)(=O)C(C)(C)C(N)=N3)c2)nc1 [Example 457, N-(3-((3S)-5-amino-3-(fluoromethyl)-6,6-dimethyl-1,1-dioxido-3,6-dihydro-2H-1,4-thiazin-3-yl)-4-fluorophenyl)-5-methoxy-2-pyridinecarboxamide] | – | – | 812 | 0.0129 | 0.00065 | – | – | –
14 | COCc1cc(Cl)cnc1C(=O)Nc1ccc(F)c([C@]2(CF)CS(=O)(=O)C(C)(C)C(N)=N2)c1 [Example 458, N-(3-((3S)-5-amino-3-(fluoromethyl)-6,6-dimethyl-1,1-dioxido-3,6-dihydro-2H-1,4-thiazin-3-yl)-4-fluorophenyl)-5-chloro-3-(methoxymethyl)-2-pyridinecarboxamide] | – | – | 499 | 0.0239 | 0.0009 | – | – | –
15 | CC1[C@@](C)(c2cc(Br)ccc2F)N=C(N)[C@](C)(F)S1(=O)=O (stereo partly drawn) [Example 459, (2R,5R)-5-(5-bromo-2-fluorophenyl)-2-fluoro-2,5,6-trimethyl-5,6-dihydro-2H-1,4-thiazin-3-amine 1,1-dioxide] | – | – | > 400 | 5.47 | 2.3 | – | – | –
16 | N-(3-((4aR,7aR)-3-amino-2,2-dimethyl-1,1-dioxido-7,7a-dihydro-2H-furo[3,4-b][1,4]thiazin-4a(5H)-yl)-4-fluorophenyl)-5-(difluoromethoxy)-3-methyl-2-pyridinecarboxamide, N-(3-((4aS,7aS)-3-amino-2,2-dimethyl-1,1-dioxido-7,7a-dihydro-2H-furo[3,4-b][1,4]thiazin-4a(5H)-yl)-4-fluorophenyl)-5-(difluoromethoxy)-3-methyl-2-pyridinecarboxamide [Example 413] | – | – | 111 | – | – | 0.0103 | 0.00265 | –
17 | N-(3-((4aR,7aS)-3-amino-2,2-dimethyl-1,1-dioxido-7,7a-dihydro-2H-furo[3,4-b][1,4]thiazin-4a(5H)-yl)-4-fluorophenyl)-3-chloro-1,7-naphthyridin-8-amine, N-(3-((4aS,7aR)-3-amino-2,2-dimethyl-1,1-dioxido-7,7a-dihydro-2H-furo[3,4-b][1,4]thiazin-4a(5H)-yl)-4-fluorophenyl)-3-chloro-1,7-naphthyridin-8-amine [Example 429] | – | 0.0046 | 131 | – | – | – | – | 0.157
18 | N-(3-((4aR,7aS)-3-amino-2,2-dimethyl-1,1-dioxido-7,7a-dihydro-2H-furo[3,4-b][1,4]thiazin-4a(5H)-yl)-4-fluorophenyl)-5-chloro-2-pyridinecarboxamide, N-(3-((4aS,7aR)-3-amino-2,2-dimethyl-1,1-dioxido-7,7a-dihydro-2H-furo[3,4-b][1,4]thiazin-4a(5H)-yl)-4-fluorophenyl)-5-chloro-2-pyridinecarboxamide [Example 426] | – | 0.0015 | 170 | – | – | – | – | 0.0136
19 | N-(3-((4aR,7aS)-3-amino-2,2-dimethyl-1,1-dioxido-7,7a-dihydro-2H-furo[3,4-b][1,4]thiazin-4a(5H)-yl)-4-fluorophenyl)-5-chloro-3-methyl-2-pyridinecarboxamide, N-(3-((4aS,7aR)-3-amino-2,2-dimethyl-1,1-dioxido-7,7a-dihydro-2H-furo[3,4-b][1,4]thiazin-4a(5H)-yl)-4-fluorophenyl)-5-chloro-3-methyl-2-pyridinecarboxamide [Example 427] | – | 0.001 | 220 | – | – | – | – | 0.033
20 | N-(3-((4aR,7aS)-3-amino-2,2-dimethyl-1,1-dioxido-7,7a-dihydro-2H-furo[3,4-b][1,4]thiazin-4a(5H)-yl)-4-fluorophenyl)-5-methoxy-3-methyl-2-pyridinecarboxamide, N-(3-((4aS,7aR)-3-amino-2,2-dimethyl-1,1-dioxido-7,7a-dihydro-2H-furo[3,4-b][1,4]thiazin-4a(5H)-yl)-4-fluorophenyl)-5-methoxy-3-methyl-2-pyridinecarboxamide [Example 428] | – | 0.00971 | 309 | – | – | – | – | 0.0373
21 | N-(3-((7R)-9-amino-7-(fluoromethyl)-5,5-dioxido-5-thia-8-azaspiro[3.5]non-8-en-7-yl)-4-fluorophenyl)-3-chloro-1,7-naphthyridin-8-amine, N-(3-((7S)-9-amino-7-(fluoromethyl)-5,5-dioxido-5-thia-8-azaspiro[3.5]non-8-en-7-yl)-4-fluorophenyl)-3-chloro-1,7-naphthyridin-8-amine [Example 243] | – | 0.00131 | 363 | – | – | – | – | 0.0779
